{"source": "patent US20200254065A1", "about": "“LONG-ACTING GLP-2 ANALOGS” (OPKO Biologics Ltd., priority 2019, published 2020)", "key": {"[1]": {"tested_on": "small intestine", "assay": "Intestine weight model in rats", "assay_type": "in vivo, SD rats", "conditions": "for Small intestine weight increase over vehicle (%): MAL-FMS-V4 compared to Vehicle 2", "procedure,_shortened": "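Rat intestinal growth model: conjugates given s.c. at 0.5–8.0 mg/kg peptide dose, as one injection, on days 1 and 3, or every 6 days; small intestine weighed on day 3, 6, 7, 10, 12 or 14. Histology (H&E, duodenum/jejunum/ileum) gave crypt+villus length. Both reported as % increase over vehicle.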"}, "[2]": {"assay": "Stability of GLP-2 analogues on incubation at 37° C. (appearance, O.D. reading, RP-HPLC)", "assay_type": "physicochemical", "conditions": "following 48 h incubation at 37° C.", "method": "The GLP-2 analogues were tested for stability via appearance, O.D. reading (A.280, and A.325) and RP-HPLC (purity, and peak area) following t=0, 1 day, and 48 h incubation at 37° C."}, "[3]": {"assay": "PK after single IV injection in rats", "assay_type": "in vivo", "conditions": "rat, in vivo, iv, 2 mg/kg", "excerpt": "Blood samples were collected at 0.5, 2, 4, 8, 12, 24, 36, 48, 72, 96- and 120-hours post-dose administration."}, "[4]": {"assay": "2-compartmental pharmacokinetic modelling (MONOLIX 2018R2)", "assay_type": "in vivo, rat", "conditions": "rat, in vivo", "method": "An in-depth PK modeling was performed to address the unexpected differences in half life, distribution, and pharmacological effect between V4, Cys-FMS-V4, and Apraglutide in the rat model. The analysis was performed with MONOLIX 2018R2 suite using a 2-compartmental pharmacokinetic model. The data used in this analysis was comprised from 3 independent experiments (data is presented as their average). The concentration versus time data of V4 that was formed from the Cys-FMS-V4 conjugate (the hydrolyzed peptide) was described appropriately using the values of the pharmacokinetic parameters of V4 peptide. Thus, the disposition of the hydrolyzed V4 was identical to that of the V4 peptide following the IV and SC administration.\nThe pharmacokinetics of Apraglutide in our studies was determined after SC administration. […] Based on this assumption, the values of volumes of distribution and clearance (Vpept, Vss, Vbeta, and CL) were calculated for Apraglutide (Table 13). The values of the other parameters of Apraglutide in Table 14 (the rate constants and the half-lives) are not dependent on this assumption."}}, "note": "Marks after values point to notes of the source that are not given here. Square brackets hold non-standard residues; d marks the D form. Peptide text beside a SMILES is read from it. Nle = CCCC[C@H](N)C(=O)O"}
{"smiles": "CCCC[C@H](NC(=O)[C@H](CCC(=O)O)NC(=O)[C@H](CC(=O)O)NC(=O)[C@H](CO)NC(=O)[C@H](Cc1ccccc1)NC(=O)[C@H](CO)NC(=O)CNC(=O)[C@H](CCC(=O)O)NC(=O)CNC(=O)[C@@H](N)Cc1c[nH]cn1)C(=O)N[C@@H](CC(N)=O)C(=O)N[C@H](C(=O)N[C@H](C(=O)N[C@@H](CC(C)C)C(=O)N[C@@H](CC(=O)O)C(=O)N[C@@H](CC(C)C)C(=O)N[C@@H](CC(C)C)C(=O)N[C@@H](C)C(=O)N[C@@H](C)C(=O)N[C@@H](CCCNC(=N)N)C(=O)N[C@@H](CC(=O)O)C(=O)N[C@@H](Cc1ccccc1)C(=O)N[C@H](C(=O)N[C@@H](CC(N)=O)C(=O)N[C@@H](Cc1c[nH]c2ccccc12)C(=O)N[C@@H](CC(C)C)C(=O)N[C@H](C(=O)N[C@@H](CCC(N)=O)C(=O)N[C@H](C(=O)N[C@@H](CCCCN)C(=O)N[C@H](C(=O)N[C@H](C(=O)N[C@@H](CC(=O)O)C(N)=O)[C@@H](C)O)[C@@H](C)CC)[C@@H](C)O)[C@@H](C)CC)[C@@H](C)CC)[C@@H](C)CC)[C@@H](C)O", "note": "[Variant 4] (H-HGEGSFSDE[Nle]NTILDLLAARDFINWLIQTKITD-NH2)", "values": [{"measurement": "Small intestine weight percent increase over vehicle (FIG. 12)", "setting": "[1]; Study 15203, single SC 2 mg/kg peptide content on Day 1, Days 6 and 10", "value": "the most favorable results"}, {"measurement": "Small intestine weight percent increase over vehicle (FIG. 15)", "setting": "[1]; Study 15205, single SC 0.5, 2.0 or 8.0 mg/kg, Days 3, 7 and 14", "value": "reached maximal acute response at day 3"}, {"measurement": "Increase of intestine weight over vehicle (%)", "setting": "[1]; modified peptides, two injections on days 1 & 3 at 1 mg/kg, intestine weight on day 6", "value": 89, "unit": "%"}, {"measurement": "Avg. small intestine weight (gr)", "setting": "[1]; normal SD rats, injected once at 2 mg/kg peptide dose, 6th day", "value": 7.0, "unit": "gr"}, {"measurement": "Small intestine weight increase over vehicle (%)", "setting": "[1]; normal SD rats, injected once at 2 mg/kg peptide dose, 6th day, listed as V4, 2 mg/kg", "value": "43.0** %"}, {"measurement": "Small intestine weight increase over vehicle (%)", "setting": "[1]; normal SD rats, injected once at 2 mg/kg peptide dose, 6th day, listed as V4 peptide, 2 mg/kg", "value": "the most pronounced effect on the small intestine weight"}, {"measurement": "Solubility via appearance", "setting": "[2]", "value": "V4: clear"}, {"measurement": "AUC(0-inf)", "setting": "[3]", "value": 36.2, "unit": "µM·h"}, {"measurement": "AUC(0-t)", "setting": "[3]", "value": 33.7, "unit": "µM·h"}, {"measurement": "Cl/F_obs", "setting": "[3]", "value": "0.015 (μmol/kg)/(μmol/L)/h"}, {"measurement": "Cmax", "setting": "[3]", "value": 7.1, "unit": "µM"}, {"measurement": "Detectability in blood after IV administration", "setting": "[3]", "value": "could not be detected 24 hours post injection"}, {"measurement": "Tmax", "setting": "[3]", "value": 0.5, "unit": "h"}, {"measurement": "Vz/F_obs", "setting": "[3]", "value": "0.068 (μmol/kg)/(μmol/L)"}, {"measurement": "half-life", "setting": "[3]", "value": 3.2, "unit": "h"}, {"measurement": "Fold increase of Vbeta as compared to the initial volume of distribution", "setting": "[4]", "value": "~51", "unit": "fold"}, {"measurement": "Fold increase of Vss as compared to the initial volume of distribution", "setting": "[4]", "value": "~8", "unit": "fold"}, {"measurement": "Ratio (V4/Apraglutide) of CL", "setting": "[4]", "value": 0.96}, {"measurement": "Ratio (V4/Apraglutide) of Fpept", "setting": "[4]", "value": 0.54}, {"measurement": "Ratio (V4/Apraglutide) of Vbeta", "setting": "[4]", "value": 1.52}, {"measurement": "Ratio (V4/Apraglutide) of Vpept", "setting": "[4]", "value": 0.40}, {"measurement": "Ratio (V4/Apraglutide) of Vss", "setting": "[4]", "value": 1.68}, {"measurement": "Ratio (V4/Apraglutide) of k12", "setting": "[4]", "value": 11.60}, {"measurement": "Ratio (V4/Apraglutide) of k21", "setting": "[4]", "value": 1.54}, {"measurement": "Ratio (V4/Apraglutide) of ka—pept", "setting": "[4]", "value": 0.44}, {"measurement": "Ratio (V4/Apraglutide) of kpepte", "setting": "[4]", "value": 2.40}, {"measurement": "Ratio (V4/Apraglutide) of t1/2 absorption", "setting": "[4]", "value": 2.28}, {"measurement": "Ratio (V4/Apraglutide) of t1/2 alpha", "setting": "[4]", "value": 0.17}, {"measurement": "Ratio (V4/Apraglutide) of t1/2 beta", "setting": "[4]", "value": 1.57}, {"measurement": "k12", "setting": "[4]", "value": 0.0749, "unit": "h⁻¹"}, {"measurement": "k21", "setting": "[4]", "value": 0.0105, "unit": "h⁻¹"}, {"measurement": "ka—pept", "setting": "[4]", "value": 0.0729, "unit": "h⁻¹"}, {"measurement": "kpepte", "setting": "[4]", "value": 0.205, "unit": "h⁻¹"}, {"measurement": "t1/2 beta", "setting": "[4]", "value": 173.2, "unit": "h"}, {"measurement": "bioavailability", "setting": "[4]; Bioavailability lower in comparison to Apraglutide", "value": 46, "unit": "%"}, {"measurement": "Bioavailability following SC injection (reaching the systemic circulation)", "setting": "[4]; sc", "value": 40.1, "unit": "%"}, {"measurement": "CL", "setting": "[4]; sc", "value": 0.0129, "unit": "L/h/kg"}, {"measurement": "Fpept", "setting": "[4]; sc", "value": 0.401}, {"measurement": "Local degradation of the dose at the injection site", "setting": "[4]; sc", "value": "~60", "unit": "%"}, {"measurement": "Vd", "setting": "[4]; sc", "value": 3.21, "unit": "L/kg"}, {"measurement": "Vpept", "setting": "[4]; sc", "value": 0.0627, "unit": "L/kg"}, {"measurement": "Vss", "setting": "[4]; sc", "value": 0.51, "unit": "L/kg"}, {"measurement": "t1/2 absorption", "setting": "[4]; sc", "value": 9.51, "unit": "h"}, {"measurement": "bioavailability", "setting": "[4]; sc, Bioavailability following SC injection (reaching the systemic circulation)", "value": "~40", "unit": "%"}, {"measurement": "half-life", "setting": "[4]; sc, t1/2 absorption", "value": 9.51, "unit": "h"}, {"measurement": "half-life", "setting": "[4]; t1/2 alpha", "value": 1.29, "unit": "h"}, {"measurement": "half-life", "setting": "[4]; t1/2 beta", "value": 173, "unit": "h"}]}
